# Reference: paper PMC6149853, “Species-Specific Inactivation of Triosephosphate Isomerase from Trypanosoma brucei: Kinetic and Molecular Dynamics Studies” (Molecules : A Journal of Synthetic Chemistry and Natural …, 2017)
# How the values were obtained:
# [1] = target: T1, TbTIM (triosephosphate isomerase from Trypanosoma brucei) (Trypanosoma brucei, UniProt P04789); experiment: residual activity after […] h preincubation; alpha-GPDH coupled assay, NADH at […] nm; format: biochemical; conditions: read-out: I50
# T1 construct: homodimer; 250 residues per monomer
# [2] = target: T2, HsTIM (human triosephosphate isomerase) (Homo sapiens, UniProt P60174); experiment: as above; format: biochemical; conditions: 5 µg/mL enzyme preincubated with compound 2 h at 36 °C, 10% DMSO, 10 mM EDTA, pH 7.4; assay 1 mM GAP, 25 °C
# T2 construct: gene TPI1
# T2 sequence (P60174 2-249): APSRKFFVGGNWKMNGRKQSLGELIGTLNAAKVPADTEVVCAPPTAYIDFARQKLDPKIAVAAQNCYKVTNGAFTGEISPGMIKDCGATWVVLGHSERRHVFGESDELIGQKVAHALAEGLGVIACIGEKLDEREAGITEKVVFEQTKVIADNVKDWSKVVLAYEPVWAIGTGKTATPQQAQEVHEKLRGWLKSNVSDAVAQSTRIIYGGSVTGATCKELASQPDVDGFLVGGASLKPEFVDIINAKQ
# T1 sequence (P04789 whole entry): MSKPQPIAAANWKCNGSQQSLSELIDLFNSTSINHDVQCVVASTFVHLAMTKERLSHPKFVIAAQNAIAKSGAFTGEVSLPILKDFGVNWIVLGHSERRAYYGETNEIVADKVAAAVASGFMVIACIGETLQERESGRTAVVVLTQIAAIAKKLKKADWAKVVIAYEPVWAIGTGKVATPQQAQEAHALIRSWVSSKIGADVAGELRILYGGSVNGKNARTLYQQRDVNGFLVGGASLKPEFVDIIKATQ
SMILES,IC50 [1] [µM],% inactivation at 100 μM [2] [%]
"COC(=O)Nc1nc2cc(Oc3ccc(Cl)c4ccccc34)ccc2[nH]1 [compound 2, Methyl(5-((4-chloronaphthalen-1-yl)oxy)-1H-benzimidazol-2-yl)carbamate]",82,23
"CSc1nc2ccc(C(=O)N/N=C/c3ccc([N+](=O)[O-])o3)cc2[nH]1 [compound 3, (E)-2-(Methylthio)-N′-((5-nitrofuran-2-yl)methylene)-1H-benzimidazole-5-carbohydrazide]",73,–
"COC(=O)Nc1nc2cc(Oc3cccc4ccccc34)ccc2[nH]1 [compound 1, Methyl(5-(naphthalen-1-yloxy)-1H-benzimidazol-2-yl)carbamate]",84,12
